# Results reported in paper PMC10712727, “Safety, Tolerability, and Pharmacokinetics of Senaparib, a Novel PARP1/2 Inhibitor, in Chinese Patients With Advanced Solid Tumors: A Phase I Trial” (The Oncologist, 2023).
# Tested on: patients with advanced solid tumors
# Assay: Safety: treatment-emergent and senaparib-related adverse events graded per NCI CTCAE v4.03
# Format: in vivo
# Experimental: This phase I, open-label, multicenter, dose-escalation, and dose-expansion study was conducted at three national clinical institutions in China. […] At baseline, all patients enrolled in the dose-escalation phase had to have at least one evaluable lesion, and those in the dose-expansion period had to have at least one measurable lesion, according to Response Evaluation Criteria in Solid Tumors version 1.1 (RECIST v1.1).[16] Entry to the dose-expansion cohort required the presence of a BRCA mutation, with the exception of patients with ovarian carcinoma, fallopian tube carcinoma, and primary peritoneal carcinoma. Full study eligibility criteria are provided in Supplementary Table S1.
# Dose escalation was conducted using a modified Fibonacci 3 + 3 method (Supplementary Fig. S1).[17] Patients were administered oral senaparib from a planned starting dose of 2 mg once daily (QD), with preliminary dose escalation to 120 mg via nine dose groups, in order of their entry into the study. At a given dose level, each patient received a single dose of senaparib followed by a 7-day washout period. They then entered a continuous dosing period to confirm the safety and PK profile, in which they received senaparib QD from day 1 to day 21 of each 3-week cycle. Progression to the next higher dose required approval from the Data Safety Monitoring Committee (DSMC) upon review of the safety and PK data of the previous dose. A 50-mg twice-daily (BID) dosing group was added (planned enrollment, n = 6 patients) based on a DSMC review of the safety, PK, and efficacy analysis of the completed QD dose groups in the phase I clinical trial of senaparib dose escalation in Australia (NCT03507543), which commenced prior to the start of this trial.
# The dose-expansion period included 3 populations: dose groups in which at least one patient achieved complete response (CR) or partial response (PR) per RECIST v1.1[16] and 1 dose group higher (evaluated for safety), as well as the dose group at the maximum tolerated dose (MTD)/recommended phase II dose (RP2D). Each of these groups included those patients in the respective dose-escalation group plus a planned additional 10 patients (approximately 20 patients in the MTD/RP2D group) with BRCA^mut+ solid tumors (ovarian, breast, or prostate cancer were preferred, and ovarian cancer could be BRCA wild type). Patients received senaparib monotherapy orally QD or BID (50-mg dose only) over each 3-week cycle until disease progression or unacceptable toxicity.
# DLTs were predefined toxicities (Supplementary Table S2) recorded over the 7 days following the single-dose administration of senaparib and during the first treatment cycle (day 1-day 21) for each dose group in the dose-escalation period only. The MTD was defined as the maximum dose at which ≤1/6 patients experienced a DLT. Senaparib PK parameters were derived from blood samples collected from patients after the single administration, and at regular intervals during the first cycle of the dose-escalation and dose-expansion periods. Plasma concentrations of senaparib were determined using high-performance liquid chromatography-tandem mass spectrometry. Tumor response was assessed every 6 weeks per RECIST v1.1,[16] recording objective response rate (ORR), disease control rate (DCR), duration of response (DOR), and progression-free survival (PFS) by dose level for all patients and for those harboring BRCA^mut+ tumors.
compound,measurement,setting,value
O=C(c1cc(Cn2c(=O)[nH]c(=O)c3c(F)cccc32)ccc1F)N1CCN(c2ncccn2)CC1 [Senaparib],"Nausea TRAE, Gr≥3",100 mg QD n = 20,0 n (%)
same,"Neutrophil count decreased TRAE, All",100 mg QD n = 20,5 (25.0) n (%)
same,"Neutrophil count decreased TRAE, Gr≥3",100 mg QD n = 20,2 (10.0) n (%)
same,"Platelet count decreased TRAE, All",100 mg QD n = 20,6 (30.0) n (%)
same,"Platelet count decreased TRAE, Gr≥3",100 mg QD n = 20,1 (5.0) n (%)
same,"SAEs, events",100 mg QD n = 20,1 n ev
same,"SAEs, patients",100 mg QD n = 20,1 (5.0) n (%)
same,"TEAE Grade ≥3, events",100 mg QD n = 20,9 n ev
same,"TEAE Grade ≥3, patients",100 mg QD n = 20,7 (35.0) n (%)
same,"TEAEs leading to death, events",100 mg QD n = 20,0 n ev
same,"TEAEs leading to death, patients",100 mg QD n = 20,0 n (%)
same,"TEAEs leading to dose discontinuation, events",100 mg QD n = 20,1 n ev
same,"TEAEs leading to dose discontinuation, patients",100 mg QD n = 20,1 (5.0) n (%)
same,"TEAEs leading to dose interruption, events",100 mg QD n = 20,8 n ev
same,"TEAEs leading to dose interruption, patients",100 mg QD n = 20,6 (30.0) n (%)
same,"TEAEs leading to dose reduction, events",100 mg QD n = 20,6 n ev
same,"TEAEs leading to dose reduction, patients",100 mg QD n = 20,4 (20.0) n (%)
same,"TRAEs Grade ≥3, events",100 mg QD n = 20,9 n ev
same,"TRAEs Grade ≥3, patients",100 mg QD n = 20,7 (35.0) n (%)
same,"TRAEs, events",100 mg QD n = 20,144 n ev
same,"TRAEs, patients",100 mg QD n = 20,20 (100) n (%)
same,"Vomiting TRAE, All",100 mg QD n = 20,5 (25.0) n (%)
same,"Vomiting TRAE, Gr≥3",100 mg QD n = 20,0 n (%)
same,"WBC decreased TRAE, All",100 mg QD n = 20,9 (45.0) n (%)
same,"WBC decreased TRAE, Gr≥3",100 mg QD n = 20,1 (5.0) n (%)
same,"ALT increased TRAE, All",120 mg QD n = 4,2 (50.0) n (%)
same,"ALT increased TRAE, Gr≥3",120 mg QD n = 4,1 (25.0) n (%)
same,"AST increased TRAE, All",120 mg QD n = 4,2 (50.0) n (%)
same,"AST increased TRAE, Gr≥3",120 mg QD n = 4,0 n (%)
same,"Anemia TRAE, All",120 mg QD n = 4,3 (75.0) n (%)
same,"Anemia TRAE, Gr≥3",120 mg QD n = 4,1 (25.0) n (%)
same,"Any TEAE, All",120 mg QD n = 4,4 (100) n (%)
same,"Any TEAE, Gr≥3",120 mg QD n = 4,3 (75.0) n (%)
same,"Any TEAE, events",120 mg QD n = 4,52 n ev
same,"Any TEAE, patients",120 mg QD n = 4,4 (100) n (%)
same,"Any TRAE, All",120 mg QD n = 4,4 (100) n (%)
same,"Any TRAE, Gr≥3",120 mg QD n = 4,3 (75.0) n (%)
same,"Appetite decreased TRAE, All",120 mg QD n = 4,1 (25.0) n (%)
same,"Appetite decreased TRAE, Gr≥3",120 mg QD n = 4,0 n (%)
same,"Asthenia TRAE, All",120 mg QD n = 4,2 (50.0) n (%)
same,"Asthenia TRAE, Gr≥3",120 mg QD n = 4,0 n (%)
same,"Blood bilirubin increased TRAE, All",120 mg QD n = 4,2 (50.0) n (%)
same,"Blood bilirubin increased TRAE, Gr≥3",120 mg QD n = 4,1 (25.0) n (%)
same,"Blood creatinine increased TRAE, All",120 mg QD n = 4,1 (25.0) n (%)
same,"Blood creatinine increased TRAE, Gr≥3",120 mg QD n = 4,0 n (%)
same,"Hypokalemia TRAE, All",120 mg QD n = 4,0 n (%)
same,"Hypokalemia TRAE, Gr≥3",120 mg QD n = 4,0 n (%)
same,"Nausea TRAE, All",120 mg QD n = 4,1 (25.0) n (%)
same,"Nausea TRAE, Gr≥3",120 mg QD n = 4,0 n (%)
same,"Neutrophil count decreased TRAE, All",120 mg QD n = 4,1 (25.0) n (%)
same,"Neutrophil count decreased TRAE, Gr≥3",120 mg QD n = 4,0 n (%)
same,"Platelet count decreased TRAE, All",120 mg QD n = 4,1 (25.0) n (%)
same,"Platelet count decreased TRAE, Gr≥3",120 mg QD n = 4,0 n (%)
same,"SAEs, events",120 mg QD n = 4,1 n ev
same,"SAEs, patients",120 mg QD n = 4,1 (25.0) n (%)
same,"TEAE Grade ≥3, events",120 mg QD n = 4,6 n ev
same,"TEAE Grade ≥3, patients",120 mg QD n = 4,3 (75.0) n (%)
same,"TEAEs leading to death, events",120 mg QD n = 4,0 n ev
